According to PubChem BioAssay AID2125 (NMMLSC, 2009):
Active and inactive are the calls of the source.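 The calls were made as follows: active = combined score above 50, rising as EC50 falls below 10 µM and growth at top dose drops; inactive = the rest.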 Peptide text beside a SMILES is read from it. * marks the point of attachment. Cbz = O=C(OCc1ccccc1)*

Columns and labels:
Test in all cases: yeast strain panel proliferation effects – secondary panel, OD600, 26S proteasome disassembly project, profiling panel (AID 2125)
Details in all cases: S. cerevisiae strain panel, growth OD600, 6-8 h
YE4005 = tested on: YE4005
YE3955 = tested on: YE3955
YE3957 = tested on: YE3957
YE3965 = tested on: YE3965
YE4010 = tested on: YE4010
YE4006 = tested on: YE4006
YE3962 = tested on: YE3962
YE3963 = tested on: YE3963
YE4012 = tested on: YE4012
[1] = at 100 µM, active compounds read low

| Compound | percent response (growth) (YE4005; [1]) | percent response (growth) (YE3955; [1]) | percent response (growth) (YE3957; [1]) | percent response (growth) (YE3965; [1]) | EC50 (YE4010) [µM] | EC50 (YE4006) | EC50 (YE3962) [µM] | percent response (growth) (YE3963; [1]) | percent response (growth) (YE4012; [1]) | EC50 (YE4005) [µM] | EC50 (YE3955) [µM] | EC50 (YE3957) [µM] | EC50 (YE3965) [µM] | percent response (growth) (YE4010; [1]) | percent response (growth) (YE4006; [1]) | percent response (growth) (YE3962; [1]) | EC50 (YE3963) [µM] | EC50 (YE4012) |
| --- | --- | --- | --- | --- | --- | --- | --- | --- | --- | --- | --- | --- | --- | --- | --- | --- | --- | --- |
| CC(=O)N1C(=O)C(=C2C=C(C)OC(C)=C2)c2ccccc21 | 70.5% (inactive) | 70.6% (inactive) | 100% (inactive) | 34.3% (inactive) | 0.13 | 36 µM (inactive) | 0.16 | 63.5% (inactive) | 96.9% (inactive) | – | – | – | – | – | – | – | – | – |
| CC(C)C[C@@H](C=O)NC(=O)[C@H](CC(C)C)NC(=O)[C@H](CC(C)C)NC(=O)OCc1ccccc1 (Cbz-Leu-Leu-Leu-aldehyde) | – | – | – | – | – | – | – | – | – | 1.24 | 0.9 | 2.86 | 1.05 | 75.5% (inactive) | 63.7% (inactive) | 47.5% (inactive) | 0.93 | 1550 µM (inactive) |
